The source of these data is patent US6074626A (Molecular Radiation Management, Inc., priority 1999, dated 2000).

One series relates to hepatoma. The following applies: given systemically; cited from earlier work.
Series [1] in a line: Safety of ^195m cisplatinum given by HAI. It is filed as in vivo. Conditions: six patients. The protocol:
(§1) The rationale for HAI cisplatinum was evaluated in a diagnostic quantitative study trial utilizing radioactive ^195m cisplatinum. The radiopharmaceutical was prepared using a ^194 Pt target and irradiation from neutron flux in a fission reactor (45,46). […] The study was approved by the institutional review board and radiation safety committee of Cooper Hospital University Medical Center for use of up to a 1.0 mCi dose of ^195m cisplatinum, delivered intra-arterially. Institutional Review Board approved informed consent documents were signed by all patients participating in this study.
Because of a high response rate to intra-arterial cisplatinum compared to intravenous delivery a study was done to estimate whether there was a differential tumor uptake of cisplatinum. Patients were given similar tracer doses of ^195m cisplatinum, first intravenously then by HAI. It was estimated that the maximum dose for this diagnostic quantitative trial would be 1.0 mCi, which would yield an estimated absorbed dose no greater than 5 centigray to the kidneys and therefore not cause toxicity. […] FIG. 6 is an example of their gamma camera study done the same day following the intra-arterial injection of 1.0 mCi ^195 Pt cisplatinum. […] Table 4 summarizes the data for this diagnostic quantitative trial following HAI of ^195m cisplatinum. […]

In a further series the test system is viable hepatoma. The series can be described thus: Diagnostic quantitation of tumor uptake by ^195m cisplatinum gamma camera imaging after HAI. It is filed as in vivo, patients. As to the method:
as §1
Platinum-195m is a radionuclide with a physical half-life of 4.02 days. As it decays by isomeric transition it emits several photons imageable by scintillation camera. Six patients were imaged thirty minutes after administration of ^195m cisplatinum (252-1011 μCi) using a dual-head gamma camera system equipped with low-energy parallel-hole collimators. The camera was peaked at 76 keV with an energy window setting of 37%. […] Tumors and normal liver containing Pt-195m uptake were identified and appropriate regions of interest drawn. The method used for quantitation of the radioactivity utilized conjugate view images (180° opposed anterior and posterior planar images). Prior to patient studies a phantom study was performed under fixed geometry to determine a correction factor for patient attenuation and scatter and a system calibration factor. The phantom consisted of a simulated tumor containing 277.5 μCi of Pt-195m in an abdominal phantom filled with water to simulate patient attenuation and scatter. […] The activities determined from the conjugate view counting technique were divided by the administered activity and multiplied by 100 to obtain the percent tumor uptakes. Tumor-to-normal liver ratios were determined from the various regions of interest.
(§2) Because of a high response rate to intra-arterial cisplatinum compared to intravenous delivery a study was done to estimate whether there was a differential tumor uptake of cisplatinum. Patients were given similar tracer doses of ^195m cisplatinum, first intravenously then by HAI. It was estimated that the maximum dose for this diagnostic quantitative trial would be 1.0 mCi, which would yield an estimated absorbed dose no greater than 5 centigray to the kidneys and therefore not cause toxicity. […] FIG. 6 is an example of their gamma camera study done the same day following the intra-arterial injection of 1.0 mCi ^195 Pt cisplatinum. […] Table 4 summarizes the data for this diagnostic quantitative trial following HAI of ^195m cisplatinum. As shown, the mean tumor uptake was 48.4% (range 34.2-55.4%) of the given activity and the mean ratio of tumor-to-liver uptake was 2.1 (range 1.6-2.4).

The subject of a further series is tumor (hepatoma). Briefly: Scintigraphic scans of 195^m cisplatin given intravenously and intra-arterially to the same patient. It is filed as in vivo.
From the text: When the drug was given intravenously,less than five percent deposited in the tumor. When the drug was given intra-arterially, 35 to 40 percent of the drug deposited in the tumor, as witnessed by scintigraphic scans.
as §2

Series [2] concerns non-resectable hepatocellular carcinoma. The series can be described thus: Remission and survival of hepatoma patients treated monthly with hepatic artery infusion (HAI) of cisplatinum at 50 mg/m^2. It is filed as in vivo. Set-up: median survival, increase over the six months reported from other regimens: unit not given here. Conditions: for survival: one patient. The text has this: Patient population: All patients were required to have histologic documentation of hepatocellular carcinoma. Pre-treatment evaluation included a complete medical history and physical examination, hepatitis virus status and complete blood cell counts, biochemical survey including lactate dehydrogenase, alkaline phosphatase, BUN, creatinine, bilirubin, PT/PTT and alpha fetoprotein (AFP) level; radiographic studies including CT scans of the chest, abdomen and pelvis with volumetric reconstruction of both tumor and normal liver volumes allowed determination of percentage of liver replacement by tumor. The presence of ascites was determined using both clinical examination and imaging results. Excluded were patients with a creatinine >1.5 and/or BUN >25. All patients gave written informed consent. Prior to referral to our facility 23 patients (34%) had multiple chemotherapeutic regimens. Of the 67 patients, 44 (65%) were treated with external beam radiation to the involved liver as a component of the prescribed treatment program. Assessment of liver function was done using the modified Childs-Pugh classification (41). The American Joint Committee on Cancer staging system was used to stage tumor extent in all patients (42). […]
Intrahepatic arterial chemotherapy: The infusion was performed either with a temporary percutaneous femoral or axillary artery catheter or implanted port or pump. On the day prior to treatment the patients were instructed to take 1 to 2 liters of fluid orally. On admission, 1 liter of 5% dextrose in normal saline with 20 meq potassium was given intravenously. Utilizing a femoral or axillary artery transcutaneous approach an arteriogram of the common hepatic artery was done. Next, cisplatinum 50 mg/m^2 was dissolved to a concentration of 1 mg per ml of sterile water. The solution was then infused intra-arterially at a rate of 1 mg/minute. The chemotherapy was always infused into the most distal artery feeding the main mass of the tumor. Appropriate antiemetic therapy, generally Odansetron 0.15 mg/kg IV and dexamethasone 20 mg IV was administered before the cisplatinum infusion and as needed after the infusion. On discharge home patients were given an oral antiemetic regimen of Lorazepam 1 mg, every six hours, or Odansetron 8 mg every twelve hours, as needed and Dexamethasone 4 mg every six hours for one day. Patients continued monthly HAI of cisplatinum until evidence of progressive disease or death. All patients were assessable for response.
Assessment of response: Routine clinical examinations and laboratory testing were performed at monthly intervals or as clinically indicated. The defined improvements on a minimum of two CT scans and/or AFP titers obtained at least two months apart were required to delineate response. Tumor volumes were quantified by computed tomography scan volumetric analysis of the liver as previously reported (20,43). Complete remission was the disappearance of all clinical evidence of tumor for a minimum of one month. Partial remission was a decrease of 50% or more in the volume of all measurable lesions measured on contrast-enhanced CT scan or a ≥50% reduction in AFP titer. Stable disease was a <50% decrease or <25% increase in tumor volume or AFP titer. Progressive disease was the increase of at least 25% in the tumor volume of all measurable lesions on CT scan or by AFP titer. Toxicity was assessed monthly during HAI therapy using RTOG criteria (44) with scores ≥3 considered to be major toxicities.
Statistical methods: The log-rank procedure was used to test for any statistical differences in survival distribution between patient populations (47). Survival curves were generated by the Kaplan Meier technique (48). Each survival curve was plotted as a step function of the Kaplan-Meier estimates.
Intra-arterial hepatic infusions were given to 67 patients with non-resectable hepatocellular carcinoma treated between July 1991 and September 1997. […]

The subject of series [3] is hepatocellular carcinoma. The following applies: intravenous, cited from earlier work.
Series [4] deals with non-resectable hepatocellular carcinoma. The series can be described thus: Remission and survival of hepatoma patients treated monthly with hepatic artery infusion (HAI) of cisplatinum at 50 mg/m^2. In kind it is in vivo. Conditions: intra-arterial, 50 mg/m^2, 28 patients.
In series [5] the test system is hepatocellular carcinoma. The following applies: subcutaneously; untreated controls 4 months; cited from earlier work.
Where [6] appears, read: HAI, per patient (b206-b211 = patients 1-6), thirty minutes after administration.
Where [7] appears, read: intra-arterial, tracer quantities.
[8] abbreviates: HAI after failing previous therapy, disease confined to liver, AFP (+).
The mark [9] stands for this setting: HAI after failing previous therapy, disease confined to liver, AFP (-).

Several values for one entry are separate records, joined by “and”; a condition that tells them apart may be missing. Equal entries are not always repeated.

Regarding `O=c1[nH]cc(F)c(=O)[nH]1` [5-FU, 5-fluorouracil], the effectiveness result with hepatoma was “inconsistently effective”.

Turning to `[NH2][195Pt]([NH2])([Cl])[Cl]` [^195m cisplatinum], the adverse events entry in series [1] is recorded as “no adverse events occurred”. Besides, the “concentration in viable hepatoma (imaging)” value in the series with viable hepatoma (HAI) was “hyperconcentration”. Also, in the series on viable hepatoma (setting [6]), the Tumor uptake was 55.4% and 49.6% and 52.8% and 48.3% and 34.2% and 50.3%; the Tumor-to-liver uptake ratio is 1.6 and 2.3 and 2.4 and 2.1 and 2.0. The Tumor activity in the series with viable hepatoma (HAI, per patient (b206-b211 = patients 1-6), thirty minutes after administration, administered 252-1011 μCi) was 140 μCi and 501 μCi and 528 μCi and 489 μCi and 343 μCi and 503 μCi. Further, in the series on viable hepatoma (HAI, six patients), the “mean ratio of tumor-to-liver uptake” value amounted to 2.1, the “mean tumor uptake of the given activity” value is 48.4%, the “range of ratio of tumor-to-liver uptake” value was 1.6-2.4 and the “range of tumor uptake of the given activity” value is listed as 34.2-55.4%. In addition, the “exposure of the tumor vs intravenous route” value with viable hepatoma (intra-arterial, tracer amounts) is recorded as “selectively exposes the tumor to higher drug levels than can be achieved by the intravenous route”. Also, in the series on viable hepatoma (setting [7]), the kinetics entry is on record as “first-pass kinetics” and the selective tumor uptake is given as 34-55 % of administered dose. Moreover, the “drug deposited in the tumor” value in the series with tumor (hepatoma) (intravenous) is “less than five”.

As for `N.N.[Cl][Pt][Cl]` [cisplatin, cisdiamminedichloroplatinum], the median survival in series [2] (AFP positive patients, as compared with octreotide study) worked out at 12 months; in series [2] (setting [8]) it was 17.3 months; in series [2] (setting [9]), 46.3 months; in series [2] (HAI after prior treatment failure, extra-hepatic metastases, AFP (+)/elevated), 8.9 months; in series [2] (HAI after prior treatment failure, extra-hepatic metastases, AFP (-)/not elevated) it was 11.1 months; in series [2] (HAI as primary therapy, disease confined to liver, AFP (+)), 12.0 months. Moreover, the median survival in series [2] (HAI as primary therapy, disease confined to liver, AFP (-)) is 17.5 months; in series [2] (HAI as primary therapy, extra-hepatic metastases, AFP (+)/elevated) it was 7.1 months; in series [2] (HAI, AFP (+), all patients), 10.3 months; in series [2] (HAI, AFP (-), all patients, listed as cisplatinum), 21.8 months and 21 months; in series [2] (HAI, chronic Hepatitis B or C, regardless of AFP status), 10.7 months. Also, the “alive at one year” value in series [2] (setting [8]) is 56%; in series [2] (setting [9]), 75%. Moreover, the survival in series [2] (HAI as primary therapy, extra-hepatic metastases, AFP (-)/not elevated, listed as HAI-CDDP) came to 21.0 months; in series [2] (HAI as primary therapy, extra-hepatic metastases, AFP (-)/not elevated, listed as cisplatinum), 21 months. Also, the long term remission result in series [2] (HAI, 50 mg/m^2) was “long term remission can be obtained”. Further, the “overall survival at one year” value in series [2] (HAI, AFP (+), all patients) was found to be 45%; in series [2] (HAI, AFP (-), all patients), 59%. Further, in series [2] (HAI, log rank), the “significance of overall survival difference AFP (+) vs AFP (-)” value is “significantly different”. Also, in series [2] (HAI, present study group), the overall median survival stood at 10.3 months. In addition, the response rate in series [2] (arterial route) was at least 50%; in the series on hepatocellular carcinoma [3], “less than five”. In addition, the response in series [2] (intra-arterial, 67 patients) amounted to 50%. The remission in series [2] (intra-arterial, 95 patients combined) stood at 50%; in series [4], 50%. Besides, the “median survival, increase over the six months reported from other regimens” value in series [2] (worst group of hepatomas (AFP+ positive), intra-arterial) is given as “one”. Besides, the “response rate (in words)” value in the series with hepatocellular carcinoma [3] (single drug) is on record as “relatively poor response rate”. Besides, the “binding on the hepatoma, persistence” value with tumor (hepatoma) (intra-arterial) is listed as “apparently stays there for a persistent period of time”.

`CO[C@@]12[C@H](COC(N)=O)C3=C(C(=O)C(C)=C(N)C3=O)N1C[C@@H]1N[C@@H]12` [mitomycin]: the effectiveness result in the series with hepatoma is listed as “inconsistently effective”.

Take `C[C@@H](O)[C@@H]1NC(=O)[C@H](CCCCN)NC(=O)[C@@H](Cc2c[nH]c3ccccc23)NC(=O)[C@H](Cc2ccccc2)NC(=O)[C@@H](NC(=O)[C@H](N)Cc2ccccc2)CSSC[C@@H](C(=O)N[C@H](CO)[C@@H](C)O)NC1=O` [octreotide]: in the series with hepatocellular carcinoma [5], the median survival was 13 months.
